{"source": "patent US20180371076A1", "about": "“MATERNAL TH17 CELLS AND PSYCHIATRIC DISORDERS” (New York University, priority 2017, published 2018)", "key": {"[1]": {"tested_on": "offspring of pregnant mice (MIA mouse model)", "assay": "Open field test in adult offspring", "format": "in vivo", "description": "Maternal Immune Activation. Mice were mated overnight and females were checked daily for the presence of seminal plugs, noted as embryonic day 0.5 (E0.5). On E12.5, pregnant female mice were weighed and injected with a single dose (20 mg/kg; i.p.) of poly(I:C) (Sigma Aldrich) or PBS vehicle. Each dam was returned to its cage and left undisturbed until the birth of its litter. All pups remained with the mother until weaning on postnatal day 21 (P21), at which time mice were group housed at maximum 5 per cage with same-sex littermates. For the IL-17 cytokine blockade experiment, monoclonal IL-17a blocking antibody (clone 50104; R&D) or isotype control antibody (IgG2a, clone 54447; R&D) was administered 6 h before maternal immune activation (FIG. 2) via i.p. route (500 μg/animal) or 2 days after maternal immune activation (FIG. 5) via i.p. route (500 μg/animal).\nOpen field test. Adult mice were placed in a 50×50 cm white Plexiglas box. Activity was recorded by a video camera and data was analyzed with Ethovision software (Noldus). The software allows display of the paths taken by the mice, and it measures the total distance moved into the center of the arena in a 10 min session."}, "IL-1β": {"tested_on": "IL-1β", "assay": "IL-1β ELISA of maternal serum", "format": "in vivo, mouse", "conditions": "poly(I:C) at E12.5, 3 h, vs PBS", "description": "Cell preparation, Flow cytometry, ELISA Embryos at each implantation site were dissected in ice-cold HBSS containing Ca2+ and Mg2+ (Gibco). Myometrium was first peeled off of the decidua and embryos were discarded. Dissected decidual and placental tissues were then minced and enzymatically dissociated in HBSS containing 0.28 Wunsch units (WU)/mL Liberase (Roche) and 30 μg/mL DNase I (Roche) for 30 min at 37° C. with intermittent mixing. Digested tissues were washed in PBS containing 5 mM EDTA and 5% fetal bovine serum and then incubated again in the same buffer for 15 min at 37° C. prior to filtration through a cell strainer. […] Intracellular cytokine staining was performed according to the manufacturer's protocol (Cytofix/Cytoperm buffer set from BD with Pacific Blue-conjugated CD4, FITC or PerCP-Cy5.5-conjugated CD8, APC4 Cy7-conjugated TCR-β, PE-Cy7-conjugated anti-IL-17a, PE-conjugated anti-IFN-γ, PECy7-conjugated anti-CD25 and PE-conjugated Foxp3 (eBioscience). LSR II (BD Biosciences) and FlowJo software (Tree Star) were used for flow cytometry and analysis. Dead cells were excluded using the Live/Dead fixable aqua dead cell stain kit (Invitrogen). For ELISA with sera and placenta/decidua extract, IL-6 (Ebioscience), IL-17a, TNF-α, IL-1β, IFN-β (Biolgened), and IL-10 (BD) were measured according to the manufacturer's protocol."}, "[2]": {"assay": "Properties of the litter (gender ratio, litter size, offspring weight)", "format": "in vivo, mouse", "conditions": "PBS vs poly(I:C), control vs anti-IL-17a treated dams"}, "IL-17Ra mRNA": {"tested_on": "IL-17Ra mRNA", "assay": "IL-17Ra mRNA in fetal brain (real-time PCR, in situ hybridization)", "format": "in vivo, mouse", "conditions": "E14.5", "description": "In Situ Hybridization. E14.5 embryos from PBS or poly(I:C)-treated mothers were collected in ice-cold PBS and subsequently fixed in 4% paraformaldehyde for 4 h at 4° C. Isolated brains were dehydrated in 30% sucrose/PBS solution overnight, and then embedded in Tissue Tek O.C.T. compound (Sakura Finetek, Torrance, Calif.). The blocks were sectioned at 16-μm thickness using a cryostat (Leica). Fluorescent in situ hybridization was performed using a branched cDNA probe with amplification technology (ViewRNA ISH Tissue Assay kit, Panomics, Santa Clara) according to the manufacturer's protocol. […]\nReal-Time PCR Total RNA was extracted from the cerebral cortex of E14.5 fetal brain of male embryo (RNase plus mini kit, Qiagen) as well as from the decidua- and the placenta-derived mononuclear cells and reverse transcribed into cDNA using oligodT (ProtoScript first strand cDNA synthesis kit, NEB) according to the manufacturer's instructions. mRNA levels of target genes (il17ra, il17rc, il17a and il6) were quantified with a Real-Time PCR System (CFX connect Real-Time PCR, Bio-Rad) using fluorescent SYBR Green technology (Bio-Rad). […] Changes in relative gene expression normalized to gapdh or actin levels were determined using the relative threshold cycle method based on the Cont-PBS group. […]"}}, "data": [{"substance": "poly(I:C)", "values": [{"measurement": "total distance covered in open field", "setting": "[1]; offspring of MIA mothers", "value": "did not affect the total distance covered"}, {"measurement": "time in the center of an open field", "setting": "[1]; offspring of poly(I:C)-injected WT or RORγ/γt HET animals vs PBS-injected WT", "value": "significantly reduced time in the center"}, {"measurement": "serum IL-1β", "setting": "IL-1β", "value": "strong induction"}, {"measurement": "gender ratios, litter sizes and weights", "setting": "[2]", "value": "not affected"}, {"measurement": "IL-17Ra mRNA in fetal brain (real-time PCR)", "setting": "IL-17Ra mRNA; induction of MIA", "value": "strongly augmented"}, {"measurement": "IL-17Ra mRNA in fetal brain cortex (in situ hybridization)", "setting": "IL-17Ra mRNA; poly(I:C) injection of pregnant dams", "value": "strongly up-regulated"}]}]}
